The assay has as its system E. coli ATCC 25922. It is filed as cell-based, Escherichia coli. As to conditions: ATCC 25922, 24 h. As to the method:
The term “MIC” refers to minimal inhibitory concentration and will be defined as the lowest concentration of either soluble peptide or peptide immobilized on a polymer that results in total kill of bacteria.
The minimal inhibitory concentration (MIC) for the peptides was determined in sterile microtiter plates in a final volume of 200 μL using Trypticase Soy Broth (TSB; Difco Laboratories, Detroit, Mich.) as the growth medium. Serial two-fold dilutions of the peptide stock were made in the plate wells such that concentrations ranged from 512 to 2 μg/mL in a volume of 100 μL. Each well was then inoculated with 100 μL of a dilute suspension of bacteria in TSB yielding a final concentration of 1×10^4 bacteria/mL. The final peptide concentrations ranged from […]. The assay plates were incubated at 37° C. for 24 hours inside a Bioscreen C microtitre plate reader (Thermo Labsystems; Vantaa, Finland). Optical Density (OD) of the medium at 600 nm was recorded every 20 minutes to monitor cell growth. The lowest concentration of peptide preventing bacterial growth during the 24 hr period was defined as the MIC.

No end group written: not given here.

Regarding “FKAFKAFKAFKAFKA [SEQ ID NO: 4, FKAFKAFKAFKAFKA]”, the MIC (as a rule, the lowest concentration that inhibits growth of the organism) came to 128 µg/mL. Under “FKAFKAFKAFKAFKAFKA [SEQ ID NO: 5, FKAFKAFKAFKAFKAFKA]” stands 32 µg/mL; under “LKVLKVLKVLKVLKVLKV [SEQ ID NO: 3, LKVLKVLKVLKVLKVLKV]”, 4 µg/mL. In turn, “LKVLKVLKVLKVLKV [SEQ ID NO: 2, LKVLKVLKVLKVLKV]” returned a minimum inhibitory concentration (MIC) of 32 µg/mL. This MIC lies about 8-fold higher than the previous one. For “LKALKALKALKALKR [SEQ ID NO: 1, LKALKALKALKALKR]” the value was 64 µg/mL.

(Values after US7563764B2, “Antimicrobial peptides based on tripeptide repeats” (E. I. du Pont de Nemours and Company, priority 2004, dated 2009).)
